# Patent US20160015725A1, “METHODS OF CONTROLLING TUMOR BIOENERGETICS NETWORKS” (THE WISTAR INSTITUTE OF ANATOMY AND BIOLOGY, priority 2012, published 2016)
# Legend:
# Assay type in all cases: cell-based, human
# [1] = test system: multiple tumor cell types; assay: ATP production in tumor cells (luciferin-luciferase)
# Experimental: Intracellular ATP concentrations were measured by the luciferin—luciferase method using an ATP measuring kit (Biochain). The ATP concentration in each extract was measured with a microplate luminometer (Beckman Coulter) against standard ATP solutions used as reference. In some experiments, PC3 or LN229 cells were preincubated with sodium pyruvate for 7 h in the presence of vehicle or Gamitrinib before determination of ATP production.
# hexokinase = assay: Hexokinase activity in mitochondrial fractions of treated cells; details: LN229 mitochondrial fractions, 5 h
# Experimental: HK activity in LN229 cells was measured as the total glucosephosphorylating activity using a standard G6PDH-coupled assay kit (BioVision). Mitochondria isolated from Gamitrinib- or 17-AAG-treated LN229 cells, or cultures transfected with various siRNAs were homogenized in cold PBS, followed by centrifugation at 1000 g for 10 min at 4° C. HK activity was determined by analysis of G6P-dependent conversion of NADP to NADPH in the presence of excess […] in the presence of 2 mM glucose, and quantification of absorbance at 450 nm. All assays were performed at 25° C. under conditions of linear HK-limited NADPH formation.
# [2] = test system: AMP-activated kinase (AMPK); assay: AMPK phosphorylation in tumor cells, Western blotting; details: tumor cells
# mTORC1 = mTORC1 signaling in tumor cells, Western blotting
# LN229 cells = assay: Cell viability by MTT
# Experimental: Various cell types were seeded in triplicate onto 96-well plates at 4×10^3 cells/well, treated with vehicle, Gamitrinib or 17-AAG (0-20 μM) for 12 h, and analyzed for changes in metabolic activity by an MTT assay. For determination of apoptosis, LN229 cells ([…]) were labeled for annexin V and propidium iodide (PI) (BD Biosciences), and analyzed by multiparametric flow cytometry (BD).
# [3] = test system: V600E mutant BRAF melanoma cells; assay: AMPK and autophagy signaling in mutant BRAF melanoma cells
# Source text: (§1) Human glioblastoma LN229, prostate adenocarcinoma PC3 or LNCaP cells, or normal NIH3T3 fibroblasts were obtained from the American Tissue Culture Collection (ATCC, Manassas, Va.), and maintained in culture according to the supplier's specifications. The following wild type (WT) BRAF N-Ras mutant melanoma cells WM852 and WM1366, and melanoma cells carrying a V600E activating mutation in the BRAF oncogene, 451Lu, Me11617 and WM983B were used in this study. WT or CypD knockout Mouse Embryonic Fibroblasts (MEFs, CypD−/−) were characterized earlier 40. In some experiments, CypD−/− MEFs were stably transfected with control plasmid, WT CypD or peptidyl prolyl isomerase (PPIase)-deficient H168Q CypD mutant cDNA, and analyzed for differential recruitment of HK-II to mitochondrial or cytosolic fractions.
# (§2) For Western blotting, protein lysates were prepared from the different cell types in RIPA Buffer (150 mM NaCl, 1.0% Triton X-100, 0.5% sodium deoxycholate, 0.1% SDS, 50 mM Tris, pH 8.0) containing EDTA-free Protease Inhibitor Cocktail (Roche) and Phosphatase Inhibitor Cocktail 2 and 3 (Sigma Aldrich). Equal amounts of protein lysates were separated by SDS gel electrophoresis, transferred to PVDF membranes and incubated with primary antibodies of various specificities. Protein bands were detected by chemiluminescence.
# (§3) Samples were imaged using a Leica TCS SP2 confocal microscope. For determination of autophagy, cells under the various conditions tested were harvested after 12 h, and analyzed with an antibody to […] (LC3) by Western blotting.
# WT BRAF melanoma cells = assay: AMPK and autophagy signaling in WT BRAF melanoma cells; details: WT BRAF melanoma cells
# Source text: as §1, §2, §3
# tumor cells [4] = assay: ER UPR markers (Western blotting, Xbp1 splicing, RT-qPCR); details: for ER UPR markers (CHOP, C/EBPβ, Grp78): tumor cells, Western blotting; for effect on Gamitrinib-induced AMPK phosphorylation and ER stress/UPR markers: agent added to Gamitrinib
# PC3 cells = assay: ER stress luciferase-promoter reporter assay; details: PC3, 20 h
# Experimental: In another series of experiments, PC3 cells were transfected with control or Grp78-directed siRNA, and analyzed for cell viability after 24 h by an MTT assay. For promoter analysis, PC3 cells were plated in triplicate onto 48-well plates at 1.4×10^4 cells/well, and cotransfected with Firefly Luciferase-reporters for IRE1, ATF6, PERK or CHOP and a constitutive reporter (pTK-Renilla Luc) in a 10:1 ratio using X-tremeGENE reagent (Roche). After 24 h, cells were treated with vehicle, Gamitrinib, tunicamycin or 2-DG and analyzed after 20 h for Firefly and Renilla luciferase activity using a Dual Luciferase Reporter Assay System (Promega). Transfection of plasmid DNAs was carried out with lipofectamine 2000 (Invitrogen) according to published protocols. A PPIase-defective CypD H168Q mutant cDNA was generated by Quick-Change site-directed mutagenesis (Stratagene) using primers 5′-[…]-3′ (forward) and 5′-[…]-3′ (reverse) (mutated sequences are bolded). The inserted mutation (bolded) was confirmed by DNA sequencing, and cloned in a pcDNA3.0 expression vector (Invitrogen) for reconstitution experiments in CypD−/− MEFs.
# tumor cells [5] = assay: Autophagy (LC3 conversion, LC3-CFP puncta)
# Experimental: LN229 cells were transfected with various siRNAs, and mixed after 24 h with plasmid encoding cyan fluorescent protein (CFP) fused to human […] (LC3) cDNA in the presence of Lipofectamine 2000 Transfection Reagent (Invitrogen). After 48 h, transfected cells were fixed in 4% paraformaldehyde for 15 min at 37° C., washed, and examined by fluorescence microscopy (Nikon, E600). The numbers of CFP-LC3 punctate dots per cell was determined from three independent experiments. A minimum of 50 CFP-LC3-positive cells assessed from at least ten random fields per sample were counted in triplicate per each condition.
# as §3
molecule,measurement,setting,value
"C=CCNC1=C2C[C@@H](C)C[C@H](OC)[C@H](O)[C@@H](C)/C=C(\C)[C@H](OC(N)=O)[C@@H](OC)/C=C\C=C(/C)C(=O)NC(=CC1=O)C2=O [17-AAG, 17-allylamino demethoxygeldanamycin, reference compound]",ATP production,"[1]; tumor cell types, non-cytotoxic concentrations, 5 h",had no effect on ATP production
same,hexokinase activity,hexokinase,had no effect
same,AMPK phosphorylation,[2],not
same,"phosphorylation of mTOR, 4EBP1 and p70S6 (mTORC1)",mTORC1,had no effect
same,"tumor cell viability, combination with 3-MA",LN229 cells; 17-AAG plus 3-MA vs each treatment alone,did not decrease tumor cell viability compared to each treatment alone
same,AMPK activation,[3]; BRAF mutant melanoma cells,had no effect on AMPK activation
same,AMPK phosphorylation,WT BRAF melanoma cells,had no effect on AMPK activation
"N#CC(=C(/N)Sc1ccccc1N)/C(C#N)=C(\N)Sc1ccccc1N [U0126, reference compound]",AMPK phosphorylation after Gamitrinib treatment,"[3]; mutant BRAF melanoma cells, agent added to Gamitrinib",partially restored AMPK phosphorylation
"O=CC[C@@H](O)[C@H](O)[C@H](O)CO [2-DG, 2-deoxy-D-glucose]",AMPK phosphorylation,[2],AMPK activation
same,"phosphorylation of mTOR, 4EBP1 and p70S6 (mTORC1)",mTORC1,suppression of mTORC1 4EPB1 and p70S6 phosphorylation
same,"ER UPR markers (CHOP, C/EBPβ, Grp78)",tumor cells [4],concentration (FIG. 14b)- and time (FIG. 14c)-dependent upregulation of ER UPR
same,minimal CHOP promoter activity,PC3 cells,transcriptionally induced
same,"transcriptional activation of response elements of IRE-1, ATF-6 and PERK",PC3 cells,comparably induced transcriptional activation
"N#CC(C#N)=NNc1cccc(Cl)c1 [CCCP, carbonyl cyanide 3-chlorophenylhydrazone, reference compound]",AMPK phosphorylation,[2],time-dependent phosphorylation of AMPK
same,"phosphorylation of mTOR, 4EBP1 and p70S6 (mTORC1)",mTORC1,inhibition of 4EBP1 phosphorylation
same,autophagy (LC3-II conversion),tumor cells [5],stimulation of LC3-II conversion
same,"ER UPR markers (CHOP, C/EBPβ, Grp78)",tumor cells [4],"upregulation of CHOP, C/EBPβ, and Grp78"
"Cn1cnc(N)c2ncnc1-2 [3-MA, 3-methyladenine]",tumor cell killing mediated by sub-optimal concentrations of Gamitrinib,LN229 cells; agent added to Gamitrinib,enhanced tumor cell killing mediated by sub-optimal concentrations of Gamitrinib
"CC(=O)C(=O)[O-].[Na+] [sodium pyruvate, reference compound]",rescue of ATP production in Gamitrinib-treated tumor cells,"[1]; exogenous addition, PC3 or LN229, 7 h",failed to rescue ATP production
same,effect on Gamitrinib-induced AMPK phosphorylation and ER stress/UPR markers,tumor cells [4],did not affect
"CC(=O)N[C@@H](CS)C(=O)O [NAC, N-acetyl-L-cysteine, reference compound]",effect on Gamitrinib-induced AMPK phosphorylation and ER stress/UPR markers,tumor cells [4],did not affect
tunicamycin,IRE-1 and CHOP expression,tumor cells [4]; control ER stressor,comparable induction of IRE-1 and CHOP expression
same,minimal CHOP promoter activity,PC3 cells,transcriptionally induced
same,"transcriptional activation of response elements of IRE-1, ATF-6 and PERK",PC3 cells,comparably induced transcriptional activation
